Data reported in patent publication US12280026B2, “Use of repirinast in the prophylaxis or treatment of renal fibrosis or kidney disease” (ALGERNON PHARMACEUTICALS INC., priority 2018, dated 2025).
“Also recorded” adds a separate entry of the source. Marks after values point to notes of the source that are not given here.

Columns and labels:
[1] = Example 1: UUO mice, mean body weight change following surgery; type: in vivo; details: Example 1, mostly post-surgical day 14, male C57BL/6 mice, PO QD days 1-14, doses of Table 1
Protocol: Male 9-12 week old C57BL/6 mice of 23-25 grams body weight were used. All mice were acclimated for a minimum of 5 days prior to the start of the study and housed individually in microisolators throughout the study in a 12:12 light-dark cycle on a standard maintenance mouse chow diet (Harlan Teklad 2018) with food and water given ad libitum. Prior to surgery, all mice were weighed for baseline body weight.
The UUO surgical intervention was performed according to previously described methods known in the art (Le Meur Y et al., Macrophage accumulation at a site of renal inflammation is dependent on the M-CSF/c-fms pathway, J Leukocyte Biol., 72:530-537; 2002).
All mice were first anesthetized by intraperitoneal injection with a rodent cocktail (ketamine 10 mg/mL and Xyaline 1 mg/mL) in normal saline (10 μL/g body weight). Pedal reflex and movement of the vibrissae were used to determine the state of unconsciousness. A state of unconsciousness was confirmed after a period of about 5 minutes in all animals. All mice were then shaved on the left side of the abdomen. The shaved area was first swabbed with iodine and then swabbed with alcohol. A vertical incision was made through the skin with a #22 scalpel and the skin was then retracted. A further incision of about 2.5 cm was then made through the peritoneum avoiding any major blood vessels. The peritoneum was then retracted and the left kidney was exposed.
The left kidney was then brought to the surface by hooking the ureter directly beneath the kidney with sterile forceps and gently manipulating the kidney upward. The ureter was ligated at two points directly below the kidney with 5-0 surgical silk with excess suture cut away and discarded post-ligation. The kidney was then gently placed back to its correct anatomical position and the abdomen was lavaged with 1 mL sterile saline to replenish fluid loss. The peritoneum and then skin were sutured with 5-0 Mersilene, and the incision site was gently wiped with iodine. All mice were then placed individually in clean cages that were set on top of a thermal blanket until recovery at about 30-60 minutes later. In some examples, sham surgery was performed as a control by following all steps of the UUO surgical intervention procedure except ligation.
Following surgery, the mice were divided into 14 individual study groups of 8 mice each and, following post-surgical recovery, administered a once-daily oral treatment for 14 days. The mice in 12 of the 14 study groups (hereafter known as “treatment groups”) had all received the UUO surgical ligation and were treated individually with a distinct pharmacologic compound as set out in Table 1. The mice in 2 of the 14 study groups were treated individually with a pharmaceutically acceptable vehicle with no active ingredient. The pharmaceutically acceptable vehicle in all groups was 0.5% carboxymethyl cellulose (CMC). All mice were sacrificed with CO2 on post-surgical day 15.
The dose selected for the animal studies was determined by taking the maximum known human daily dose, dividing by the average weight of an adult (˜60-70 kg) to get a human mg/kg dose. […]
Body weight: The body weights were measured on days 1, 2, 5, 8, 10 and 14 using a laboratory balance.
Body weights were measured on post-surgical days 1, 2, 5, 8, 10 and 14 as previously described. The mean body weight change of each study group was calculated using the body weight average of all mice in each study group.

[2] = Example 2: UUO mice, mean body weight change following surgery; type: in vivo, C57BL/6 mice; details: for Mean Body Weight Change Following Surgery, Day 1 / Mean Body Weight Change Following Surgery, Day 4 / Mean Body Weight Change Following Surgery, Day 7 / Mean Body Weight Change Following Surgery, Day 10 / Mean Body Weight Change Following Surgery, Day 14: UUO, female C57BL/6 mice, PO QD days 1-14; for Body weight course after surgery, in words: Example 2
Protocol: (§1) In this example, healthy young female C57BL/6 mice were used for the study. At the commencement of the study, mice were between 9-12 weeks of age, weighing 23-25 g. All the mice were obtained from Charles River Laboratories.
(§2) The mice were maintained in a controlled environment with a temp 70-72° F., humidity 30-70%, with a photo cycle of 12 hours of light and 12 hours of dark. They were provided with Harlan Teklad 2018 standard maintenance mouse chow diet and drinking water ad libitium.
(§3) After five days of acclimatization, the mice were grouped according to their body weight. There were ten groups of ten mice each. Nine groups of ten mice each underwent UUO as described above and the other group of ten mice underwent a sham procedure to serve as a no-surgery control.
(§4) Following surgery, the mice were divided into 10 individual study groups of 10 mice each and, following post-surgical recovery, administered a once-daily oral treatment for 14 days. The mice in 8 of the 10 study groups had all received the UUO surgical ligation and were treated individually with a distinct pharmacologic compound as set out in Table 6. The mice in 2 of the 10 study groups were treated individually with a pharmaceutically acceptable vehicle with no active ingredient. The pharmaceutically acceptable vehicle in all groups was 0.5% carboxymethyl cellulose (CMC). All mice were sacrificed with CO2 on post-surgical day 15.
(§5) The dose selected for the animal studies was determined by taking the maximum known human daily dose, dividing by the average weight of an adult (˜60-70 kg) to get a human mg/kg dose. That number was multiplied by 12 to convert to a mouse dose based on conventional dosing tables. See Nair and Jacob, J Basic Clin Pharm March 2016-May 2016, 7(2):27-31.
Body weight: The body weights were measured on days 1, 4, 7, 10 and 14 using a laboratory balance.
Body weights were measured on post-surgical days 1, 4, 7, 10 and 14 as previously described. The mean body weight change of each study group was calculated using the body weight average of all mice in each study group.

[3] = system: C57BL/6 mice with UUO surgical ligation; test: Example 2: UUO mice, renal function evaluation (plasma BUN, creatinine); type: in vivo; details: for BUN / Creatinine: plasma at sacrifice day 15, group mean, UUO, female C57BL/6 mice, PO QD days 1-14
Protocol: as §1, §2, §3, §4, §5
Serum collection: A blood sample was then collected from all mice and plasma analyzed for urea nitrogen and creatinine. Plasma was stored at −80° C. for possible future analysis.
(§6) The data are presented as the mean obtained from Microsoft Excel or GraphPad Prism version 5.00 for Windows (GraphPad Software, San Diego California USA). Data were analyzed using two-way ANOVA using Bonferroni and Tamhane post-tests. Differences between groups were considered significant at p<0.05.
Renal Function Evaluation: Renal function and disease progression was evaluated by BUN (blood urea nitrogen) as previously described. The BUN of each study group consisted of the BUN average of all mice in each study group.

[4] = system: C57BL/6 mice with UUO surgical ligation; test: Example 2: UUO mice, kidney weight evaluation; type: in vivo; details: group mean, UUO, female C57BL/6 mice, PO QD days 1-14; for Drained Left Kidney: ligated kidney drained; for Excised Left Kidney: ligated kidney; for Right Kidney (g): unligated kidney
Protocol: as §1, §2, §3, §4, §5
Kidney weight: The UUO was then examined in situ to ensure that the surgical ligation ties remained patent. Both the ligated (UUO) and non-ligated kidneys were removed for analysis. Weights of both kidneys were measured using a laboratory balance.
as §6
Kidney Weight Evaluation: Kidney weight, which indicates functional and pathological changes in the kidney, was evaluated by measuring the weight of both the ligated (UUO) and non-ligated kidneys as previously described. The ligated and non-ligated kidney weights of each study group consisted of the respective kidney weight averages of all mice in each study group.

[5] = mg/kg: Telmisartan 3, Bemithyl 200, Repirinast 30, Telmisartan+Bemithyl 3+200, Telmisartan+Repirinast 3+30, Cenicriviroc 40, Bromantane 40

**Q.** What does the source list for `Cc1ccc2c([nH]c(=O)c3c(=O)cc(C(=O)OCCC(C)C)oc32)c1C` [Repirinast, 3-methylbutyl 7,8-dimethyl-4,5-dioxo-5,6-dihydro-4H-pyrano[3,2-c]quinoline-2-carboxylate]?
**A.** Mean body weight change, comparison with control groups, in words [1]: greater decrease in body weight; Mean Body Weight Change Following Surgery, Day 1 ([2]; Repirinast 90 mg/kg): 0 g; Mean Body Weight Change Following Surgery, Day 1 [2, 5]: 0 g; Mean Body Weight Change Following Surgery, Day 4 ([2]; Repirinast 90 mg/kg): 0.31 g; Mean Body Weight Change Following Surgery, Day 4 [2, 5]: 0.34 g; Mean Body Weight Change Following Surgery, Day 7 ([2]; Repirinast 90 mg/kg): 0.60 g; Mean Body Weight Change Following Surgery, Day 7 [2, 5]: 0.35 g; Mean Body Weight Change Following Surgery, Day 10 ([2]; Repirinast 90 mg/kg): 0.86 g; Mean Body Weight Change Following Surgery, Day 10 [2, 5]: 0.83 g; Mean Body Weight Change Following Surgery, Day 14 ([2]; Repirinast 90 mg/kg): 1.08 g; Mean Body Weight Change Following Surgery, Day 14 [2, 5]: 0.86 g; Body weight course after surgery, in words ([2]; Repirinast 90 mg/kg PO QD): no initial decrease in body weight; also recorded: appeared to reverse the negative effects of UUO on body weight gain; Body weight course after surgery, in words ([2]; mg/kg PO QD: Repirinast 30, Bemithyl 200, Bromantane 40, Telmisartan+Bemithyl 3+200): no initial decrease in body weight; Level of BUN compared to vehicle, in words ([3]; Example 2, Repirinast 90 mg/kg PO QD): significant reductions in the level of BUN compared to vehicle; also recorded: reduction in BUN compared to vehicle; Level of BUN compared to vehicle or other agents, in words ([3]; Example 2, mg/kg PO QD: Telmisartan 3, Bemithyl 200, Repirinast 30, Telmisartan+Bemithyl 3+200, Telmisartan+Repirinast 3+30, Cenicriviroc 40, Bromantane 40): significant reductions in the level of BUN compared to vehicle; BUN ([3]; * significant vs vehicle Bonferroni, # Tamhane (p<0.05), mg/kg: Telmisartan 3, Bemithyl 200, Repirinast 30, Telmisartan+Bemithyl 3+200, Telmisartan+Repirinast 3+30, Cenicriviroc 40, Bromantane 40): 18.5*# mg/dL; BUN ([3]; Repirinast 90 mg/kg): 17.6*# mg/dL; Creatinine ([3]; Repirinast 90 mg/kg): 0.20 mg/dL; Creatinine [3, 5]: 0.20 mg/dL; Drained Left Kidney ([4]; Repirinast 90 mg/kg): 0.1648 g; Drained Left Kidney [4, 5]: 0.1808 g; Excised Left Kidney ([4]; Repirinast 90 mg/kg): 0.3681 g; Excised Left Kidney [4, 5]: 0.412 g; Right Kidney (g) ([4]; Repirinast 90 mg/kg): 0.1378* g; Right Kidney (g) [4, 5]: 0.1468* g
